Legend:
[1] = test system: splenocytes of DR1 transgenic mice; test: Oral APL A12: IFNγ production by cultured splenocytes of DR1 transgenic mice; format: in vivo, mouse
[2] = test system: Peyer's Patch cells of DR1 TCRtg+/+ mice; test: Oral APL A12: IL-17 and IL-10 in cultures of Peyer's Patch cells of DR1 TCRtg+/+ mice; format: in vivo, mouse
[3] = test system: patients with recent onset of type 1 diabetes mellitus; settings: IFNγ and IL-5 ELISPOT, weeks 0-26; cited from earlier work
patients with RA = settings: cited from earlier work
[4] = test system: murine models of oral tolerance; test: Murine models of oral tolerance; settings: mouse, in vivo
From the text: A form of CII based therapy has been tried in patients with RA and juvenile RA by administering intact native chick or bovine CII to patients. Seven trials of treatment with oral CII have been reported including two of our own. […] Most patients in these studies also received NSAIDs which block oral tolerance and systemic tolerance. The use of NSAIDS might have been responsible for the mixed results of oral CII in RA. […] Furthermore, we have applied these crucial data in designing oral tolerance trials in humans. We can down regulate with oral CII, PBMC production of IFNγ to α1(II) in RA patients who take NSAIDS plus misoprostol and/or DMARDS and anti-TNFα therapies. Oral administration of low dose antigen generates regulatory T cells, which act in the respective microenvironment in a non-antigen specific manner by producing down-regulatory cytokines such as IL4, IL10 and TGFbeta, a Th2/Th3 cytokine pattern.

DR1 Transgenic mice = test: Effect of A12 on CIA in DR1 Transgenic mice (CII plus A12; intravenous A12 after CII-immunization); format: in vivo, mouse
Protocol: Assuming that CII263-270 was key to developing immunity to the intact CII molecule, a number of analog peptides where amino acids within this small segment were substituted with those found in the corresponding sites of nonarthritogenic type I collagen were prepared and tested. […] The APL A12 developed for this study has the following amino acid sequence: LGPKGQTGEBG[IAGNKGDQGPK]GEBGPA (SEQ ID NO: 3) where B=hydroxproline. The core determinant of human CII263-270 is bracketed. The underlined residues are those substituted to produce APL A12. The residues amino terminal and carboxy terminal to the core determinant is from the normal human CII sequence.

[5] = mice gavaged with 50 μg CII263-270 9 times over 2 weeks, cells cultured with PBS
[6] = mice gavaged with 50 μg CII263-270, cells cultured with APL A12 50 μg/ml
[7] = mice gavaged with 50 μg CII263-270, cells cultured with CII263-270 50 μg/ml
[8] = mice gavaged with PBS, cells cultured with CII263-270 50 μg/ml

With “FKGEQGPK [CII263-270, reference compound]” the “IFNγ Levels in Splenocyte Culture” value ([1]; mice gavaged with 50 μg CII263-270 8 times over 2 weeks, splenocytes cultured with PBS) was 68 ± 85 pg/mL, the “IFNγ Levels in Splenocyte Culture” value ([1]; mice gavaged with 50 μg CII263-270, splenocytes cultured with APL A12 50 μg/ml) was 80 ± 52 pg/mL and the “IFNγ Levels in Splenocyte Culture” value ([1]; mice gavaged with 50 μg CII263-270, splenocytes cultured with CII263-270 50 μg/ml) was 124 ± 84 pg/mL. The “IFNγ Levels in Splenocyte Culture” value ([1]; mice gavaged with PBS, splenocytes cultured with CII263-270 50 μg/ml) was 280 ± 222 pg/mL, the “II-10 Levels in Peyer's Patch Cultures” value [2, 5] was 15 pg/mL and the “IL-17 Levels in Peyer's Patch Cultures” value [2, 5] was 11 pg/mL. The “II-10 Levels in Peyer's Patch Cultures” value [2, 6] was 35 pg/mL, the “IL-17 Levels in Peyer's Patch Cultures” value [2, 6] was 62 pg/mL and the “II-10 Levels in Peyer's Patch Cultures” value [2, 7] was 15 pg/mL. For the same molecule, the “IL-17 Levels in Peyer's Patch Cultures” value [2, 7] was 256 pg/mL, the “II-10 Levels in Peyer's Patch Cultures” value [2, 8] was 45 pg/mL and the “IL-17 Levels in Peyer's Patch Cultures” value [2, 8] was 30 pg/mL.

In the case of SHLVEALALVAGERG [NBI-6024], the “PBMC ELISPOT responses to B(9-23) epitope and NBI-6024” value [3] is listed as “induced, predominantly Th2 responses”.

In the case of “[O]QKRAAYDQ[U]YGHAAFE (QKRAAYDQYGHAAFE; Synthetic peptide dnaJP1) [synthetic peptide derived from bacterial heat shock protein]”, the cytokine profile (patients with RA; CD3+ cells, oral, six months) is given as “switch in the cytokine profile from Th1 to Th2”, the tolerability (patients with RA; oral 0.25, 2.5 and 25 mg per day for six months) is given as “well tolerated and no significant side effects occurred” and the worsening of arthritis (patients with RA; oral, six months) is given as “no worsening of arthritis”.

For etanercept, the oral tolerance induction [4] was “do not block oral tolerance induction”.

B1: Ova: control antigen given intravenously in Table I (protein, UniProt P01012 2-386, looked up)
Ovalbumin: GSIGAASMEFCFDVFKELKVHHANENIFYCPIAIMSALAMVYLGAKDSTRTQINKVVRFDKLPGFGDSIEAQCGTSVNVHSSLRDILNQITKPNDVYSFSLASRLYAEERYPILPEYLQCVKELYRGGLEPINFQTAADQARELINSWVESQTNGIIRNVLQPSSVDSQTAMVLVNAIVFKGLWEKAFKDEDTQAMPFRVTEQESKPVQMMYQIGLFRVASMASEKMKILELPFASGTMSMLVLLPDEVSGLEQLESIINFEKLTEWTSSNVMEERKIKVYLPRMKMEEKYNLTSVLMAMGITDVFSSSANLSGISSAESLKISQAVHAAHAEINEAGREVVGSAEAGVDAASVSEEFRADHPFLFCIKHIATNAVLFFGRCVSP
With B1 the “Antibodies to CII” value (DR1 Transgenic mice; 1 mg total i.v.) was 42 ± 10 and the Incidence (DR1 Transgenic mice; arthritis incidence, 1 mg total i.v. on days 10, 12, 14 after CII-immunization) was 7/10.
